In assay [1] the target is Histone-lysine N-methyltransferase 2A/WDR5 (Homo sapiens, UniProt P61964). Description: Inhibition of MLL1/WDR5 (unknown origin) protein-protein interaction incubated for 60 mins by HTRF analysis. It is filed as protein assay.
Assay [2] concerns MV4-11. Description: Antiproliferative activity against human MV4-11 cells harboring MLL-r assessed as cell growth inhibition incubated for 5 days by CCK-8 assay. The class given is functional, cell-based. (Formazan colour is commonly taken as a measure of viable cells.)
Assay [3] relates to K562. Put plainly: Antiproliferative activity against human K562 cells assessed as cell growth inhibition incubated for 5 days by CCK-8 assay. It is filed as functional, cell-based.

This is an account of results in ChEMBL document CHEMBL5537156, “Discovery and Optimization of WDR5 Inhibitors via Cascade Deoxyribonucleic Acid-Encoded Library Selection Approach” (J Med Chem, 2024).

`CSc1cc(F)ccc1-c1cc(NCc2nc[nH]c2C)cc2c1CCN(CCc1ccc(Cl)cc1)C2=O`: the IC50 in assay [1] came to 0.0395 µM; in assay [2] (Homo sapiens, MV4-11, 120 h) it was 3.5 µM; in assay [3] (Homo sapiens, K562, 120 h) it was 4 µM.
The matching figures for `Cc1ccc(CO)cc1-c1cc(NCc2nc[nH]c2C)cc2c1CCN(Cc1ccc(Cl)cc1)C2=O`: 0.0155 µM, 5.7 µM and 7.1 µM.
As to `Cc1[nH]cnc1CNc1cc(Br)cc(C(=O)N[C@H](Cc2ccc(Cl)cc2)C(=O)NC2CC2)c1`, in assay [1], inhibition was half-maximal at 0.0324 µM (IC50).
`CNC(=O)[C@@H](Cc1ccc(Cl)cc1)NC(=O)c1cc(NCc2nc[nH]c2C)cc(-c2ccc(C(C)(F)F)cc2)c1` yielded an IC50 in assay [1] of 0.149 µM.
Consider `CSc1ccccc1-c1cc(NCc2nc[nH]c2C)cc2c1CCN(CCc1ccc(Cl)cc1)C2=O`, for which the 50% inhibitory concentration (IC50) was found to be 0.0416 µM in assay [1]; 4.8 µM in assay [2] (Homo sapiens, MV4-11, 120 h); 4.7 µM in assay [3] (Homo sapiens, K562, 120 h).
Compound `Cc1[nH]cnc1CNc1cc(Br)cc(C(=O)NCCc2ccc(Cl)cc2)c1` came in with an IC50 in assay [1] of 0.221 µM.
As to `COc1cc(CN2CCc3c(cc(Cn4ccn(C)c4=N)cc3-c3ccc(F)cc3C)C2=O)cc(OC)c1`, the IC50 came out at 0.0068 µM in assay [1]; 0.17 µM in assay [2] (Homo sapiens, MV4-11, 120 h); 3.6 µM in assay [3] (Homo sapiens, K562, 120 h).
Take `CNC(=O)[C@@H](Cc1ccc(Cl)cc1)NC(=O)c1cc(Br)cc(NCc2nc[nH]c2C)c1`: in assay [1], the IC50 was 0.0252 µM.
Take `Cc1[nH]cnc1CNc1cc(Br)cc(C(=O)N[C@H](Cc2ccc(Cl)cc2)C(=O)O)c1`: in assay [1], it took 0.05 µM to reach half-maximal inhibition (IC50).
On to `CSc1cc(F)ccc1-c1cc(NCc2nc[nH]c2C)cc2c1CCN(Cc1ccc(Cl)cc1)C2=O`, for which the IC50 in assay [1] is 0.0269 µM; in assay [2] (Homo sapiens, MV4-11, 120 h) it was 2.3 µM; in assay [3] (Homo sapiens, K562, 120 h) it was 3.5 µM.
As to `Cc1[nH]cnc1CNc1cc(C(=O)N[C@H](Cc2ccc(Cl)cc2)C(=O)O)ccc1F`, half-maximal inhibition in assay [1] (IC50) required 0.0846 µM.
On to `CNC(=O)[C@@H](Cc1ccc(Cl)cc1)NC(=O)c1cc(NCc2nc[nH]c2C)cc(-c2ccccc2C2CC2)c1`, for which the IC50 in assay [1] is 0.0188 µM.
On to `CSc1ccccc1-c1cc(NCc2nc[nH]c2C)cc2c1CCCN(CCc1ccc(Cl)cc1)C2=O`, for which the IC50 was determined as 0.319 µM in assay [1]; 3.93 µM in assay [2] (Homo sapiens, MV4-11, 120 h); 3.03 µM in assay [3] (Homo sapiens, K562, 120 h).
As to `Cc1ccc(CO)cc1-c1cc(NCc2nc[nH]c2C)cc2c1CCN(CCc1ccc(Cl)cc1)C2=O`, the IC50 in assay [1] is 0.0172 µM; in assay [2] (Homo sapiens, MV4-11, 120 h), 6.2 µM; in assay [3] (Homo sapiens, K562, 120 h), 3.4 µM.
The matching figures for `CNC(=O)[C@@H](Cc1ccc(Cl)cc1)NC(=O)c1cc(NCc2nc[nH]c2C)cc(-c2ccccc2SC)c1`: 0.0113 µM, 1.9 µM and 1.1 µM.
Compound `Cc1[nH]cnc1CNc1cc(C(=O)N[C@H](Cc2ccc([N+](=O)[O-])cc2)C(=O)O)ccc1F` showed an IC50 in assay [1] of 0.239 µM.
As to `CNC(=O)[C@@H](Cc1ccc(Cl)cc1)NC(=O)c1cc(NCc2nc[nH]c2C)cc(-c2ccc(Cl)cc2C(F)(F)F)c1`, the IC50 in assay [1] was determined as 0.0098 µM; in assay [2] (Homo sapiens, MV4-11, 120 h), 6.2 µM; in assay [2] (mv4-11) it was 4.13 µM; in assay [3] (Homo sapiens, K562, 120 h), 3.43 µM; in assay [3] (k562), 4.9 µM.
For `COC(=O)[C@@H](Cc1ccc(Cl)cc1)NC(=O)c1cc(NCc2nc[nH]c2C)cc(-c2ccccc2SC)c1`, the IC50 in assay [2] (Homo sapiens, MV4-11, 120 h) is 3.9 µM; in assay [3] (Homo sapiens, K562, 120 h), 3 µM.
Turning to `Cc1[nH]cnc1CNc1cc2c(c(-c3ccc(Cl)cc3C(F)(F)F)c1)CCN(CCc1ccc(Cl)cc1)C2=O`, the IC50 in assay [1] turned out to be 0.0758 µM; in assay [2] (Homo sapiens, MV4-11, 120 h) it was 4.8 µM; in assay [3] (Homo sapiens, K562, 120 h), 5.2 µM.
On the same counts, the results for `CSc1ccccc1-c1cc(NCc2nc[nH]c2C)cc2c1CCN(Cc1ccc(Cl)cc1)C2=O` are 0.0405 µM, 3.4 µM and 4.9 µM.
Consider `COC(=O)[C@@H](Cc1ccc(Cl)cc1)NC(=O)c1cc(NCc2nc[nH]c2C)cc(-c2cc(CO)ccc2C)c1`, for which the IC50 in assay [2] (Homo sapiens, MV4-11, 120 h) amounted to 5.5 µM; in assay [3] (Homo sapiens, K562, 120 h), 4.9 µM.
As for `CNC(=O)[C@@H](Cc1ccc(Cl)cc1)NC(=O)c1cc(NCc2nc[nH]c2C)cc(-c2cc(CO)ccc2C)c1`, the IC50 in assay [1] amounted to 0.0086 µM; in assay [2] (Homo sapiens, MV4-11, 120 h), 5 µM; in assay [3] (Homo sapiens, K562, 120 h), 12.2 µM.

A word on the IC50: it is the concentration needed to halve the response being measured.
